According to PubChem BioAssay (NCI):
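Five concentrations, 48 hours, 96-well plates. The concentration for full growth arrest is given as TGI.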

What was measured:
Experiment in all cases: NCI-60 cell line screen, 48 h
[1] = system: M14 melanoma
[2] = system: UACC-62 melanoma
[3] = system: SW-620 colon
[4] = system: NCI-H23 lung
[5] = system: U251 CNS
[6] = system: OVCAR-5 ovarian
[7] = system: PC-3 prostate
[8] = system: HOP-92 NSCLC
[9] = system: HT29 colon
[10] = system: 786-0 renal
[11] = system: LOX IMVI melanoma
[12] = system: A549 NSCLC
[13] = system: SK-MEL-5 melanoma
[14] = system: RXF 393 renal
[15] = system: T-47D breast
[16] = system: UO-31 renal
[17] = system: HS 578T breast
[18] = system: HCT-15 colon
[19] = system: SK-MEL-28 melanoma
[20] = system: SK-MEL-2 melanoma
[21] = system: RPMI-8226 leukemia
[22] = system: SNB-19 CNS
[23] = system: OVCAR-3 ovarian
[24] = system: SF-268 CNS
[25] = system: BT-549 breast
[26] = system: NCI-H460 lung
[27] = system: OVCAR-4 ovarian
[28] = system: NCI-H522 lung
[29] = system: HOP-62 NSCLC
[30] = system: MDA-N
[31] = system: MOLT-4 leukemia
[32] = system: CAKI-1 renal
[33] = system: EKVX NSCLC
[34] = system: K-562 leukemia
[35] = system: A498 renal
[36] = system: IGROV1 ovarian
[37] = system: NCI/ADR-RES ovarian
[38] = system: SR leukemia
[39] = system: MALME-3M melanoma
[40] = system: OVCAR-8 ovarian
[41] = system: NCI-H226 lung
[42] = system: KM12 colon
[43] = system: ACHN renal
[44] = system: HL-60(TB) leukemia
[45] = system: MDA-MB-435
[46] = system: HCT-116 colon
[47] = system: SN12C renal
[48] = system: CCRF-CEM leukemia
[49] = system: MDA-MB-231 breast
[50] = system: TK-10 renal
[51] = system: UACC-257 melanoma
[52] = system: SF-295 CNS
[53] = system: COLO 205 colon
[54] = system: DU-145 prostate
[55] = system: MCF7 breast
[56] = system: SNB-75 CNS
[57] = system: SF-539 CNS
[58] = system: SK-OV-3 ovarian
[59] = system: HCC-2998 colon

## NC(Cc1ccccc1)P(=O)(O)O (stereo unspecified)
[1]
  TGI: > 100 µM
[2]
  TGI: > 100 µM
[3]
  TGI: > 100 µM
[4]
  TGI: > 100 µM
[5]
  TGI: > 100 µM
[6]
  TGI: > 100 µM
[7]
  TGI: > 100 µM
[8]
  TGI: > 100 µM
[9]
  TGI: > 100 µM
[10]
  TGI: > 100 µM
[11]
  TGI: > 100 µM
[12]
  TGI: > 100 µM
[13]
  TGI: > 100 µM
[14]
  TGI: > 100 µM
[15]
  TGI: > 100 µM
[16]
  TGI: > 100 µM
[17]
  TGI: > 100 µM
[18]
  TGI: > 100 µM
[19]
  TGI: > 100 µM
[20]
  TGI: > 100 µM
[21]
  TGI: > 100 µM
[22]
  TGI: > 100 µM
[23]
  TGI: > 100 µM
[24]
  TGI: > 100 µM
[25]
  TGI: > 100 µM
[26]
  TGI: > 100 µM
[27]
  TGI: > 100 µM
[28]
  TGI: > 100 µM
[29]
  TGI: > 100 µM
[30]
  TGI: > 100 µM
[31]
  TGI: > 100 µM
[32]
  TGI: > 100 µM
[33]
  TGI: > 100 µM
[34]
  TGI: > 100 µM
[35]
  TGI: > 100 µM
[36]
  TGI: > 100 µM
[37]
  TGI: > 100 µM
[38]
  TGI: > 100 µM
[39]
  TGI: > 100 µM
[40]
  TGI: > 100 µM
[41]
  TGI: > 100 µM
[42]
  TGI: > 100 µM
[43]
  TGI: > 100 µM
[44]
  TGI: > 100 µM
[45]
  TGI: > 100 µM
[46]
  TGI: > 100 µM
[47]
  TGI: > 100 µM
[48]
  TGI: > 100 µM
[49]
  TGI: > 100 µM
[50]
  TGI: > 100 µM
[51]
  TGI: > 100 µM
[52]
  TGI: > 100 µM

## CCn1c2ccccc2c2cc(N=Nc3ccc(C#N)cc3)ccc21
[53]
  TGI: > 100 µM
[1]
  TGI: > 100 µM
[2]
  TGI: > 100 µM
[54]
  TGI: > 100 µM
[55]
  TGI: > 100 µM
[3]
  TGI: > 100 µM
[4]
  TGI: 68.6 µM
[5]
  TGI: > 100 µM
[6]
  TGI: > 100 µM
[7]
  TGI: > 100 µM
[8]
  TGI: 79.7 µM
[9]
  TGI: > 100 µM
[10]
  TGI: > 100 µM
[11]
  TGI: 61.8 µM
[12]
  TGI: > 100 µM
[13]
  TGI: > 100 µM
[15]
  TGI: > 100 µM
[16]
  TGI: > 100 µM
[17]
  TGI: > 100 µM
[18]
  TGI: > 100 µM
[19]
  TGI: > 100 µM
[20]
  TGI: > 100 µM
[22]
  TGI: 71.6 µM
[56]
  TGI: 87.6 µM
[23]
  TGI: > 100 µM
[24]
  TGI: > 100 µM
[25]
  TGI: 57.1 µM
[26]
  TGI: > 100 µM
[27]
  TGI: > 100 µM
[28]
  TGI: > 100 µM
[29]
  TGI: > 100 µM
[30]
  TGI: > 100 µM
[31]
  TGI: > 100 µM
[32]
  TGI: > 100 µM
[33]
  TGI: > 100 µM
[35]
  TGI: 70 µM
[57]
  TGI: > 100 µM
[36]
  TGI: > 100 µM
[39]
  TGI: 52.7 µM
[40]
  TGI: > 100 µM
[41]
  TGI: > 100 µM
[42]
  TGI: > 100 µM
[43]
  TGI: > 100 µM
[44]
  TGI: > 100 µM
[45]
  TGI: > 100 µM
[46]
  TGI: > 100 µM
[47]
  TGI: > 100 µM
[48]
  TGI: > 100 µM
[49]
  TGI: 59 µM
[50]
  TGI: > 100 µM
[58]
  TGI: > 100 µM
[51]
  TGI: > 100 µM
[52]
  TGI: > 100 µM

## COc1ccc(C2SC(N)=Nc3c2c(C)nn3C(=O)Cc2ccccc2)cc1 (stereo unspecified)
[53]
  TGI: > 100 µM
[1]
  TGI: > 100 µM
[2]
  TGI: > 100 µM
[54]
  TGI: > 100 µM
[59]
  TGI: > 100 µM
[55]
  TGI: > 100 µM
[3]
  TGI: > 100 µM
[4]
  TGI: > 100 µM
[7]
  TGI: > 100 µM
[9]
  TGI: > 100 µM
[10]
  TGI: > 100 µM
[11]
  TGI: > 100 µM
[12]
  TGI: > 100 µM
[13]
  TGI: > 100 µM
[15]
  TGI: > 100 µM
[16]
  TGI: > 100 µM
[17]
  TGI: > 100 µM
[18]
  TGI: > 100 µM
[19]
  TGI: > 100 µM
[21]
  TGI: > 100 µM
[22]
  TGI: > 100 µM
[56]
  TGI: > 100 µM
[24]
  TGI: > 100 µM
[25]
  TGI: > 100 µM
[26]
  TGI: > 100 µM
[28]
  TGI: > 100 µM
[29]
  TGI: > 100 µM
[30]
  TGI: > 100 µM
[31]
  TGI: > 100 µM
[32]
  TGI: > 100 µM
[33]
  TGI: > 100 µM
[34]
  TGI: > 100 µM
[35]
  TGI: > 100 µM
[57]
  TGI: > 100 µM
[36]
  TGI: > 100 µM
[38]
  TGI: > 100 µM
[39]
  TGI: > 100 µM
[40]
  TGI: > 100 µM
[41]
  TGI: > 100 µM
[42]
  TGI: > 100 µM
[43]
  TGI: > 100 µM
[44]
  TGI: > 100 µM
[45]
  TGI: > 100 µM
[46]
  TGI: > 100 µM
[47]
  TGI: > 100 µM
[48]
  TGI: > 100 µM
[49]
  TGI: > 100 µM
[50]
  TGI: > 100 µM
[58]
  TGI: > 100 µM
[51]
  TGI: > 100 µM
[52]
  TGI: > 100 µM
